Assay results from patent publication US6379959B1, “Metalocarboxypeptidase inhibitors and derived molecules used as antitumor agents” (Universitat Autonoma de Barcelona, priority 1996, dated 2002).
“And” between values parts separate entries of the source, which are not always exact repeats. Equal values may be shown once. Positions of bridges follow the written chain, without caps; N, C: chain ends. No end group written: not given here.

What was measured:
[1] = test system: human pancreatic adenocarcinoma cell line Capan-1; test: Proliferation test with tetrazolium salts, Capan-1 in medium with serum; type: cell-based; settings: 23 days
Experimental: In this test, with the aim of determining whether the presence of PCI in the culture medium produces some effect on the growth in vitro of the cellular lines, the final amount of cells was evaluated after a specific number of days, in presence and absence of inhibitor. The final number of cells was determined by means of tetrazolium salts (kit EZ4U) which, being added to the cultures, are reduced by mitochondrial enzymes of the cells, producing derivatives of formazan of a different colour. The amount of formed derivatives depends on the number of existing cells.
1. In a culture plate of 96 wells, in 48 of them, 5,000 cells were seed. Of these 48:
In 8 wells (control), 200 μL of full medium (DMEM+10%FBS) were added without PCI. […]
2. The cells were kept in an incubator at 37° C., 87% of relative humidity and 10% of CO2. The medium contained in the wells was changed every 3-4 days. The old medium was sucked out with a Pasteur pipette. Medium free of PCI was added to the control wells and, to the others, a medium with identical concentration of PCI to which they had previously, was also added.
3. After a specific number of days, the number of cells per well was evaluated by means of the following procedure:
To calculate the result of the test, the following was done: the average of the A620 of the blank ones was substracted from the A620 of each well. Immediately after, the result of the previous subtraction, as well as the average of the A450 of the blank ones was substracted from the A450 of each well. The result thus obtained is directly proportional to the amount of cells present in the well. Next, the average and the typical deviation was obtained from the results of the wells which had undergone identical treatment.
The effect of the presence of the PCI can be expressed employing the cell growth percentage in relation to the controls (without PCI) which is easily calculated: [formula]
A proliferation test with indirect determination of the number of cells by means of tetrazolium salts using the cell line Capan-1 was carried out. This is a human pancreatic adenocarcinoma cell line (ATCC nr. HTB-79), established by Fogh, G. et al. (1977) J. Natl. Cancer Inst., 58: 209-214, and Fogh, J. et al. (1977) J. Natl. Cancer Inst., 59: 221-226, from a liver metastasis.
As it has been explained, the cells were cultivated for 23 days, after which the cell growth was evaluated per well by means of tetrazolium salts. The results obtained are expressed in Table 3, where the average, the standard deviation and the standard error of the cell growth in relation to the controls are shown.

[2] = test system: tumors of human pancreatic adenocarcinoma cell line Capan-1; test: Tests with athymic mice, subcutaneous Capan-1 tumors; type: in vivo, nude mice; parameters: key to SGD class: SGD < 1 expressed as −; >expressed +; <3 expressed as +++; settings: for Duplication time (days) of the tumor: daily 100 μL into the tumor, 32 days (control 4.32)
Experimental: With the aim of evaluating the sensitivity to PCI of induced human tumors, studies were carried out with nude mice. Human pancreatic adenocarcinoma cells Capan-1 were inoculated in these mice subcutaneously and once the tumor reached a minimum size of 3×3 mm2, a daily treatment begun, also subcutaneous, with different doses of PCI for 32 days. The following materials were employed:
In order to determine whether the PCI had any effect on tumoral growth, the growth of subcutaneous tumors induced in nude mice, whether treated with PCI or not, was followed over a period of time. The detailed protocol was the following:
1. 10^7 Capan-1 cells were dissolved in 100 μL of DMEM and injected subcutaneously to the mice. 19 mice were inoculated and divided into 4 groups.
Control group: consisting of 5 mice. They were treated with PBS.
Group 1: also consisting of 5 mice. They were treated with 0.11 mg/mL of PCI dissolved in PBS.
Group 2: consisting of 5 mice to which a treatment with a dose of 0.6 mg/mL of PCI was applied.
Group 3: consisting of 4 mice for which, in this case, the dose of PCI was 1.2 mg/mL of PCI.
2. 12 days after the inoculation of the cells, the daily treatment with PBS or PCI by direct injection in the tumor of 100 μL of such solutions was started. At this moment, the tumors were palpable and measured, at least, 2 mm of diameter.
3. During the treatment, the size of the tumor was determined every two days using a Vernier calibrator which made it possible to measure the size of the tumor in all its dimensions. The volume of the tumor was determined by means of the following formula: [formula]
As the volumes of the tumors became known, the relative growth of such tumors was calculated every 7 days using the following formula: [formula]
Once the treatment had finished, the duplication time of the tumor (td) was calculated for each treatment with the following formula: [formula]
where d corresponds to the days of treatment, Vt to the volume of the tumor at the end of the treatment and V0 to the volume at the beginning of the treatment.

EGF receptor = EGF receptor (Homo sapiens, UniProt P00533); test: Kinase activity (phosphorilation) of the EGF receptor, Capan-1 cells; type: cell-based; parameters: endogenous in cells; host or cells: Capan-1 (human pancreatic adenocarcinoma)
Experimental: The material and protocol used have been those described by Donato, N. J. et al. (1989) J. Cell. Biochem., 41: 139-157.
1.c. Wash the cells twice more with tempered PBS and add new serum-free medium. Immediately after, add PCI to the concentration which is going to be studied in the cultures to be treated and incubate for 10 min at 37° C.
2.a. […] Incubate for 1 h in ice.
3.a. Prepare the reaction buffer. Each sample requires 50μL.
3.k. Dry the gel (for at least 3 h) and autoradiograph it for 10 min for the A431 cell line and 2-4 h for the Capan-1 cell line. Count the radiactivity of the filter using a beta counter.

[3] = Dose 0.55 (mg(kg/day), s.c., days 0-32)
[4] = Dose 3 (mg(kg/day), s.c., days 0-32)
[5] = Dose 6 (mg(kg/day), s.c., days 0-32)

Substance: PCI: potato carboxypeptidase inhibitor, isoform IIa, obtained by recombinant DNA techniques in E. coli (SEQ ID NO.2) (EQHADPICNKPCKTHDDCSGAWFCQACWNSARTCGPYVG; disulfide 12-27, 18-34, 8-24)
- Growth (Percentage in relation to the average of the controls) ([1]; 0.1 µg/mL PCI in the medium, DMEM+10%FBS): 19.4%
- Growth (Percentage in relation to the average of the controls) ([1]; 1 µg/mL PCI in the medium): 17.1%
- Growth (Percentage in relation to the average of the controls) ([1]; 10 µg/mL PCI in the medium): 50.0%
- Growth (Percentage in relation to the average of the controls) ([1]; 50 µg/mL PCI in the medium): 44.8%
- Growth (Percentage in relation to the average of the controls) ([1]; 200 µg/mL PCI in the medium): 43.3%
- inhibition of the growth ([1]; concentrations of 0.1 and 1 μg/mL): higher than 80%
- inhibition of the growth ([1]; concentrations of 10, 50 and 200 μg/mL): ~50%
- Duplication time (days) of the tumor ([2]; 0.11 mg/mL PCI): 9.06 days
- Duplication time (days) of the tumor ([2]; 0.6 mg/mL PCI): 19.49 days
- Duplication time (days) of the tumor ([2]; 1.2 mg/mL PCI): 5.78 days
- Optimal T/C % [2, 3]: 39.79%
- SGD (Td treated- Td control/Td control) [2, 3]: 1.09
- SGD class [2, 3]: +
- Optimal T/C % [2, 4]: 21.36%
- SGD (Td treated- Td control/Td control) [2, 4]: 3.51
- SGD class [2, 4]: +++ (<3 expressed as +++)
- Optimal T/C % [2, 5]: 69.4%
- SGD (Td treated- Td control/Td control) [2, 5]: 0.34
- SGD class [2, 5]: − (SGD < 1 expressed as −)
- days of treatment until tumors start bleeding in the process of injection ([2]; animals treated with PCI (control three days)): 8 days
- activity in the reduction of the growth of the tumors ([2]; dose of 0.11 mg/mL): moderate activity (T/C < 50% moderate activity)
- duplication time of the tumor relative to the control tumors ([2]; dose of 0.11 mg/mL of PCI): twice as high
- activity in the reduction of the growth of the tumors ([2]; dose of PCI of 0.6 mg/mL): significant activity (T/C < 25%, significant activity)
- duplication time of the tumor relative to the control group ([2]; doses of 0.6 mg/mL): 4.5 times
- Kinase activity (%) (EGF receptor; 5 ng/mL EGF + 1 mg/mL PCI): 180%
- Kinase activity (%) (EGF receptor; 5 ng/mL EGF + 10 mg/mL PCI): 170%
- Kinase activity (%) (EGF receptor; 5 ng/mL EGF + 50 mg/mL PCI): 120%
- inhibition of the kinase activity induced by EGF (EGF receptor; PCI concentration of 50 μg/mL): 50%
- Kinase activity (%) (EGF receptor; basal, incubation with PCI 50 mg/mL, 10 min, 100% = absence of PCI): 70% and 88% and 90%
